Reference: ChEMBL document CHEMBL1130503, “Synthesis and antibacterial activity of some thio trinems” (Bioorg Med Chem Lett, 1997)
Values after ≈ are worked out from the molar mass of the structure shown.

How the values were obtained:
[1] = test system: Escherichia coli; test: The compound was tested in vitro for the antibacterial activity against Escherichia coli 1919 beta-lactamase producing strain, activity expressed as MIC; format: functional
[2] = test system: Staphylococcus aureus; test: The compound was tested in vitro for the antibacterial activity against Staphylococcus aureus 663E strain, activity expressed as MIC; format: functional
[3] = test system: Escherichia coli; test: The compound was tested in vitro for the antibacterial activity against Escherichia coli 1850E strain, activity expressed as MIC.; format: functional
[4] = test system: Staphylococcus aureus; test: The compound was tested in vitro for the antibacterial activity against Staphylococcus aureus 853E beta-lactamase producing strain, activity expressed as MIC; format: functional
[5] = test system: renal dehydropeptidase I (DHP-I); test: Tested for Biological half life in human plasma (stability to human renal dehydropeptidase I,DHP-I).; format: ADME, cell-free
[6] = test system: Clostridium perfringens; test: The compound was tested in vitro for the antibacterial activity against Clostridium perfringens 615E strain, activity expressed as MIC; format: functional
[7] = test system: Bacteroides fragilis; test: The compound was tested in vitro for the antibacterial activity against Bacteroides fragilis 2017 strain, activity expressed as MIC; format: functional
[8] = test system: renal dehydropeptidase I (DHP-I); test: Biological half life in human plasma (stability to human renal dehydropeptidase I,DHP-I).; format: ADME, cell-free
[9] = Clostridium perfringens, read-out: MIC

Row | Compound | MIC ([1]; Escherichia coli) | MIC ([2]; Staphylococcus aureus) | MIC ([3]; Escherichia coli) | MIC ([4]; Staphylococcus aureus) | half-life [5] | MIC [6, 9] | MIC ([7]; Bacteroides fragilis) | MIC [7] | half-life [8] | MIC [6] | MIC [1] | MIC [2] | MIC [3] | MIC [4]
1 | C=CCOC(=O)C1=C2SCCC[C@H]2[C@@H]2[C@@H]([C@@H](C)O)C(=O)N12 | 2 µg/mL (≈ 6.46 µM) | 1 µg/mL (≈ 3.23 µM) | 1 µg/mL (≈ 3.23 µM) | 1 µg/mL (≈ 3.23 µM) | 10 min | 500 µg/mL (≈ 1620 µM) |  |  |  |  |  |  |  | 
2 | CS[C@H]1CCS[C@H]2C1=C(C(=O)[O-])N1C(=O)[C@H]([C@@H](C)O)[C@@H]21.[Na+] | 1 µg/mL | 0.2 µg/mL | 2 µg/mL | 0.5 µg/mL | 386 min | ≤ 10 µg/mL | 0.2 µg/mL |  |  |  |  |  |  | 
3 | C[C@@H](O)[C@H]1C(=O)N2C(C(=O)[O-])=C3CCCS[C@@H]3[C@H]12.[Na+] | 0.5 µg/mL | 1 µg/mL | 0.5 µg/mL | 1 µg/mL |  | 30 µg/mL | 0.25 µg/mL |  |  |  |  |  |  | 
4 | C[C@@H](O)[C@H]1C(=O)N2C(C(=O)[O-])=C3CCSCC3[C@H]12.[K+] (stereo in doubt; 15a) | 2 µg/mL | 1 µg/mL | 4 µg/mL | 1 µg/mL |  |  |  | 0.12 µg/mL | 12 min | 1000 µg/mL |  |  |  | 
5 | C[C@@H](O)[C@H]1C(=O)N2C(C(=O)[O-])=C3CCSCC3[C@H]12.[K+] (stereo in doubt; 15b) |  |  |  |  | < 7 min |  |  | 0.5 µg/mL |  | 250 µg/mL | 1 µg/mL | 1 µg/mL | 4 µg/mL | 0.5 µg/mL
6 | C[C@@H](O)[C@H]1C(=O)N2C(C(=O)O)=C(SCCNC=N)C[C@H]12 [IMIPENEM ANHYDROUS] | 0.5 µg/mL (≈ 1.67 µM) | 0.06 µg/mL (≈ 0.2 µM) | 0.5 µg/mL (≈ 1.67 µM) | 0.12 µg/mL (≈ 0.401 µM) |  | 30 µg/mL (≈ 100 µM) | 0.12 µg/mL (≈ 0.401 µM) |  |  |  |  |  |  | 
